This note sets out measurements from PubChem BioAssay (NCI).

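Following 48 hours of exposure in 96-well plates, responses at five concentrations were used to interpolate endpoints linearly. GI50 marks 50% less growth. TGI: concentration producing complete growth inhibition.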

Common to all, as to assay: inhibition of tumour cell growth, NCI panel, 48 h
Assay [1] relates to SN12C renal.
Assay [2] deals with CCRF-CEM leukemia.
Assay [3] has as its system TK-10 renal.
The test system of assay [4] is UACC-257 melanoma.
Assay [5] has as its system NCI-H23 lung.
Assay [6] concerns HOP-92 NSCLC.
Assay [7] deals with UACC-62 melanoma.
Assay [8] deals with SR leukemia.
The subject of assay [9] is MALME-3M melanoma.
Assay [10] deals with OVCAR-4 ovarian.

As for `CN1CCN(CCCn2c3c(sc4ncccc43)c(=O)n3nnc(-c4ccccc4)c23)CC1`, the GI50 is 14.5 µM in [1]; 1.57 µM in [2]; 3.15 µM in assay [3]; 5.81 µM in [4]; 1.97 µM in [5]; 9.5 µM in [6]. Moreover, the GI50 is 17.6 µM in assay [7], 0.241 µM in assay [8], 6.38 µM in assay [9] and 1.87 µM in assay [10]. In addition, the TGI in assay [1] came to 28.8 µM; in [2], 4.08 µM; in assay [3] it was 10.7 µM; in assay [4] it was 10.5 µM; in [5] it was 4.38 µM; in assay [6], 28.4 µM. Moreover, the TGI in assay [7] was found to be 33.8 µM; in assay [8], 0.603 µM; in [9] it was 11.8 µM; in [10], 3.73 µM.
On to `CCCCCCCCCCCCCC(=O)OCC1OC(=O)C(O)C1O` (centres undefined), for which the TGI in [1], in assay [2], in assay [3], in assay [4], in assay [5] and in assay [6] was more than 100 µM throughout. Further, the TGI in [7], in assay [8], in [9] and in [10] was more than 100 µM each time.
As to `CN(C)c1ccc(/C=C(\C#N)C(=O)c2ccccc2)cc1Br`, the TGI in assay [1], in assay [2], in assay [3], in [4], in assay [5] and in assay [6] was more than 100 µM each time. The TGI in [7], in assay [8], in assay [9] and in assay [10] was more than 100 µM each time.
As for `CC(C)Cc1cc(-c2cccn2C)c(C#N)c(=O)[nH]1`, the GI50 in assay [1] is more than 100 µM; in assay [2], 23.4 µM; in assay [3], more than 100 µM; in assay [4] it was more than 100 µM; in [5] it was more than 100 µM; in assay [6], more than 100 µM. For the same molecule, the GI50 was more than 100 µM in [7], 59.7 µM in assay [8], more than 100 µM in assay [9] and 69.4 µM in [10]. Besides, the TGI in [1], in [2], in assay [3], in assay [4], in [5] and in [6] was more than 100 µM each time. In addition, the TGI in assay [7], in assay [8], in assay [9] and in [10] was more than 100 µM each time.
Take `COc1ccc(COc2ccc(Cc3cnc(N)nc3N)cc2OC)cc1`: the GI50 was more than 25 µM in assay [1]; more than 25 µM in assay [2]; more than 25 µM in assay [3]; 8.48 µM in [4]; more than 17.1 µM in assay [5]; 1.29 µM in assay [6]. Also, the GI50 in assay [7] is 12 µM; in [8] it was 24.3 µM; in assay [9], more than 5.1 µM; in assay [10] it was 11 µM. The TGI in [1] is more than 25 µM; in [2], more than 25 µM; in [3], more than 25 µM; in assay [4], more than 25 µM; in assay [5], more than 25 µM; in [6] it was more than 21 µM. In addition, the TGI in assay [7], in [8], in [9] and in [10] was more than 25 µM each time.
With `Cc1c(-c2c(F)cc(C(N)=O)c3[nH]c4c(c23)CC[C@H](C(C)(C)O)C4)cccc1-n1c(=O)c2cccc(F)c2n(C)c1=O`, the GI50 was 3.9 µM in [1]; 4.52 µM in [2]; 2.04 µM in [3]; 2.9 µM in assay [4]; 2.79 µM in assay [5]; 1.01 µM in assay [6]. Besides, the GI50 is 3 µM in assay [7], 1.88 µM in [8], 1.84 µM in assay [9] and 6.31 µM in assay [10]. Besides, the TGI was more than 100 µM in assay [1]; more than 100 µM in assay [2]; 8.03 µM in [3]; more than 100 µM in assay [4]; more than 100 µM in assay [5]; 6.94 µM in assay [6]. Also, the TGI was more than 100 µM in assay [7], 5.81 µM in assay [8], 28.2 µM in assay [9] and more than 100 µM in assay [10].
Regarding `CC#CC#C/C=C1/C=CC2(CCCCO2)O1` (centres undefined), the TGI in assay [1] is more than 100 µM; in assay [2] it was 53.9 µM; in assay [3], more than 100 µM; in assay [4], more than 100 µM; in assay [5], more than 100 µM; in assay [6], more than 100 µM. Moreover, the TGI in [7], in [8], in assay [9] and in assay [10] was more than 100 µM in each case.
For `C#Cc1cccc(NC(=O)C2CCCCN2C(=O)CCl)c1` (centres undefined), the GI50 in assay [1] was 12.2 µM; in assay [2], 3.99 µM; in assay [3] it was 15.6 µM; in assay [4] it was 26.2 µM; in assay [5] it was 10.7 µM; in assay [6], 12.5 µM. For the same molecule, the GI50 in assay [7] was 18.9 µM; in assay [8], 3.6 µM; in assay [9] it was 9.93 µM; in assay [10], 8.77 µM. Also, the TGI was 28.4 µM in [1]; 50.1 µM in assay [2]; 33.6 µM in [3]; more than 82.5 µM in assay [4]; 28.2 µM in assay [5]; 43.3 µM in [6]. The TGI in [7] is more than 82.5 µM; in assay [8], 66.8 µM; in assay [9], 22.4 µM; in [10], 24.5 µM.
For `COc1ccc(/C=C2\CCC(C)(CN(C)C)C2=O)cc1Br` (centres undefined), the TGI in assay [1] is 31.8 µM; in [2], more than 80.5 µM; in assay [3], 44 µM; in [4], 36.6 µM; in assay [5] it was more than 95.1 µM; in [6] it was more than 85.8 µM. For the same molecule, the TGI worked out at 20 µM in assay [7], 45.7 µM in assay [8], 61.9 µM in assay [9] and 35.9 µM in assay [10].
Turning to `Cc1cccc(Nc2ncc(-c3ccccc3)o2)c1`, the GI50 in assay [1], in assay [2], in [3], in assay [4], in assay [5] and in assay [6] was more than 25 µM throughout. Also, the GI50 in assay [7], in assay [8], in assay [9] and in assay [10] was more than 25 µM in each case. Further, the TGI in assay [1], in assay [2], in assay [3], in assay [4], in assay [5] and in assay [6] was more than 25 µM each time. In addition, the TGI in assay [7], in assay [8], in assay [9] and in assay [10] was more than 25 µM each time.
As for `COc1ccc2c(c1)C(=O)CC(C(N)=O)C2` (centres undefined), the TGI in assay [1], in [2], in assay [3], in [4], in [5] and in assay [6] was more than 100 µM in each case. Besides, the TGI in assay [7], in assay [8], in assay [9] and in [10] was more than 100 µM throughout.
For `CC(C)c1cccc(C(C)C)c1NC(=O)/C(Cc1nc2ccc(Cl)cc2[nH]c1=O)=N\NC(=O)C[N+](C)(C)C`, the TGI in assay [1], in [2], in assay [3], in [4], in assay [5] and in [6] was more than 100 µM each time. The TGI in assay [7], in assay [8], in assay [9] and in [10] was more than 100 µM in each case.
As for `OCC1OC(n2cnc3cc(Cl)c(Cl)cc32)C(O)C1O` (centres undefined), the GI50 in assay [1] is 20.6 µM; in assay [2], 38.8 µM; in assay [3], 29.3 µM; in assay [4], 18.7 µM; in [5], 18.8 µM; in assay [6], 35.2 µM. Besides, the GI50 is 12.2 µM in assay [7], 0.648 µM in [8], 25.5 µM in assay [9] and 62.8 µM in assay [10]. Further, the TGI in assay [1] is 58.4 µM; in assay [2], more than 100 µM; in assay [3] it was more than 86.4 µM; in [4] it was 40.7 µM; in assay [5], 42.3 µM; in assay [6], 99 µM. Besides, the TGI in [7] was 26.6 µM; in assay [9] it was 67.5 µM; in assay [10], more than 100 µM.
Take `OCC1OC(NO)C(O)C(O)C1O` (centres undefined): the TGI in [1], in assay [2], in [3], in assay [4], in assay [5] and in assay [6] was more than 100 µM in each case. The TGI in [7], in assay [8], in [9] and in assay [10] was more than 100 µM in each case.
